pEC50, pIC50: −log10 of the molar value. Entries after “also recorded” stand apart in the source; their conditions may differ. Where two headings read alike, the source gives them in different places.
Experiments:
[1] = system: non-failing human myocardium; settings: ref [18]; cited from earlier work
[2] = system: human ventricular cardiac organoid chamber (hvCOC); assay: hvCOC second tier screening: contractile (pump) function; format: cell-based
From the text: The initial steps of hvCOC fabrication are identical to that described above for hvCTS generation, from the dissociation of cell clusters to the preparation of the cells/collagen/Matrigel mix with 1 million cells/ml of human dermal fibroblasts.
To create the chamber, we followed a procedure similar to a published procedure^29, incorporated herein by reference. Briefly, the top of a 3×3×6 cm polystyrene bioreactor was modified to permit 9-gauge hypodermic tubing (Small Parts) to pass through the center and 4 mm diameter graphite electrodes (GraphiteStore) to flank the chamber on the edges of the bioreactor. A 6-Fr silicone balloon Foley catheter (Cook Medical), with the tip cut off and sealed with silicone caulking, was threaded through the 9-Gauge tubing into the center of the bioreactor. A small ring cut from hydrophilic porous polyethylene (Fisher Scientific) was placed just above the balloon on the hypodermic tubing.
The balloon was filled with distilled water to the desired chamber size and positioned concentrically within a 2% agarose mold created in phosphate-buffered saline (PBS) and made by inserting a 13 mm diameter test tube (VWR) into the center of the agarose. The agarose mold forms the outer mold boundary while the catheter balloon forms the inner boundary. […]

[3] = system: EHT from hiPSC-CMs; settings: drug screening with EHT from hiPSC-CMs; ref [3]; cited from earlier work
[4] = system: human ventricular cardiac tissue strips (hvCTS); assay: hvCTS drug screening: twitch force under electrical pacing; format: cell-based; settings: Homo sapiens; for EC50: read-out: -log EC50 in hvCTS (converted)
Experimental: One of ordinary skill in the art will recognize that the gels can be formed in any of a variety of sizes and shapes, and the molds used to form such gels can also be formed in any of a variety of sizes and shapes, depending on the intended use of the molded gel. The molded mixtures were then bathed with culture medium (DMEM supplemented with 10% newborn calf serum), and maintained in culture with daily half-medium exchanges. Inserts in the casting molds were removed at 48 hours, yielding a self-assembled hvCTS held between 0.5-mm-diameter circular PDMS posts at each end. It is apparent that the posts can be formed from any flexible material amenable to at least one form of sterilization are suitable. As noted above, the whole mold can be scaled up or down depending on the application, and the posts can also be scaled up or down. In general, the height of the posts would be similar to the height of a well (e.g., about 6 mm in an exemplary embodiment). Any of a wide variety of cross-sectional shapes is contemplated as being suitable for use in the system, apparatus and methods according to the disclosure. At 7 days after hvCTS creation, the hvCTS were used for drug screening.
Initially, pharmacological compounds were prepared for screening. Compounds for unblinded “open label” screening were purchased from Sigma and stock solutions at the highest possible concentrations were prepared according to the product information. Working concentrations over a 5-logarithmic range were prepared for each drug.
Working concentrations over a 5-logarithmic range were prepared for each drug according to the dose-range recommendation provided by the supplier.
New born calf serum containing medium was replaced with DMEM high glucose with HEPES without phenol red for optical measurement of generated force in hvCTS. […] The integrated flexible PDMS posts were used as force sensors, with the post deflection captured in real-time with a high-speed camera (100 frames/s) and LabView software (National Instruments, Austin, Tex., USA), applying a beam-bending equation from elasticity theory to calculate twitch force, as described previously^[2] and incorporated herein by reference. These measurements were obtained with the hvCTS maintained in the original molds where they were created with the hvCTS bathed in culture medium at 37° C. For each drug, force generated in response to 9 doses were measured with the drugs added to the hvCTS at half log increments in a cumulative manner. For each dose, the force generated at 0 Hz, 0.5 Hz, 1 Hz, 1.5 Hz and 2 Hz electrical pacing with field electrodes were measured.
Data analysis. Data were calculated and analyzed by a customized MatLab program. Force frequency curves for each drug were generated by plotting the generated force at 0.5 Hz, 1 Hz, 1.5 Hz and 2 Hz at different concentrations. All forces were normalized to the generated force at 0.5 Hz at the drug-free baseline condition (100%).
[…] The force generated under drug-free baseline condition was defined as 100%. The force generated at each drug concentration was then normalized to the generated force under the cognate drug-free baseline condition. The EC50 of each tested drug was estimated by fitting to a four-parameter dose-response equation given as: Y=Bottom+(Top-Bottom)/(1+10^((Log EC^50^−X)*HillSlope)), using commercial software (GraphPad Software Inc.). X is the logarithm of drug concentrations; […]; Top and Bottom are the Y values of the top and bottom plateaus of the curve itself; Baseline is the Y value that defines 0%—maximal inhibition by a standard drug. Hill Slope quantifies the steepness of the dose-response curve (the higher the Hill Slope, the steeper the curve).

[5] = system: sheep cardiac Purkinje fibers; settings: ref [19]; cited from earlier work
[6] = system: hECT; settings: hECT in muscle bath; ref [28]; cited from earlier work
[7] = system: human right atrial trabeculae; settings: ref [21]; cited from earlier work

CC(C)NCC(O)c1ccc(O)c(O)c1 (stereo not shown) [Isoproterenol]
relevant concentration [1]: 0.8 μM [18], non-failing human myocardium
Emax at 10 µM ([2]; Homo sapiens, 10 μM isoproterenol, hvCOC, read-out: maximal effect, pressure): 132%
effect on hvCOC function ([2]; stroke volume/stroke work, cardiac output, developed pressure): concentration-dependent increase in stroke volume, cardiac output, and developed pressure; also recorded: increase in stroke work, cardiac output and pressure volume loop
relevant concentration [3]: 5.4 nM [3], drug screening with EHT from hiPSC-CMs
pEC50 ([4]; 0.5 Hz pacing, Example 2 / FIG. 2C, read-out: EC50, developed contractile force): 7.41
pEC50 ([4]; 1 Hz pacing, Example 2, read-out: EC50, developed contractile force): 7.23
pEC50 ([4]; 1 Hz pacing, unblinded screening, Example 3, read-out: EC50, developed contractile force): 6.82
pEC50 ([4]; 1.5 Hz pacing, Example 2, read-out: EC50, developed contractile force): 7.27
pEC50 ([4]; 2 Hz pacing, Example 2 / FIG. 2C, read-out: EC50, developed contractile force): 7.51
EC50 ([4]; Unblinded, 1 Hz pacing): 148 nM
pEC50 ([4]; Unblinded, 1 Hz pacing, read-out: EC50 in hvCTS (in brackets)): 6.82
pEC50 ([4]; across pacing frequencies 0.5-2 Hz, FIG. 2C, read-out: EC50 with increasing pacing frequency): 7.23 to 7.51
Emax at 10 µM ([4]; 10 μM isoproterenol, hvCTS, read-out: maximal effect): 113%

CCN(CC)CC(=O)Nc1c(C)cccc1C [Lidocaine]
pIC50 ([4]; 1 Hz pacing, blinded screening, Example 4, read-out: IC50, developed contractile force): 6.36
EC50 ([4]; Blinded, 1 Hz pacing): 437000 nM
pEC50 ([4]; Blinded, 1 Hz pacing, read-out: EC50 in hvCTS (in brackets)): 3.36
concentration with negative inotropic effect [5]: 20 μM, [19] negative inotropic effect in sheep

COc1ccc(CCN(C)CCCC(C#N)(c2ccc(OC)c(OC)c2)C(C)C)cc1OC (stereo not shown) [Verapamil]
relevant concentration [6]: 0.61 μM [28], hECT in muscle bath
pIC50 [7]: 6.91

From US20200369996A1, “Bioreactor Screening Platform for Modelling Human Systems Biology and for Screening for Inotropic Effects of Agents on the Heart” (NOVOHEART LIMITED, priority 2017, published 2020)
